Results published in patent publication US7226623B2, “In vitro and in vivo anti-inflammatory effects of a sesquiterpene lactone extract from chicory (Cichorium intybus L.)” (Rutgers, The State University of New Jersey, priority 2005, dated 2007).

Experiments:
[1] = system: nitric oxide production by LPS-induced macrophages; test: Griess assay for NO production; assay type: cell-based, murine; conditions: aspirin 10 μM, LPS 1 μg/mL, 24 hours
Method: Down-regulation of various pro-inflammatory genes, including iNOS, IL1β and TNF-α, can reduce nitric oxide production by macrophages. In order to confirm that changes in pro-inflammatory gene expression were affecting cellular function, the Griess assay was performed to indirectly measure nitric oxide production by LPS-induced macrophages by measuring nitrite. For the assay, RAW cells were plated in a 96-well plate at a minimum density of 5×10^3 cells/well and grown for 24 hours. […] After 24 hours, conditioned media (50 μl) was removed and immediately mixed with 100 μl of Griess reagent ([…], 1% naphthalene-ethylenediamine dihydrochloride in 5% H3PO4). After incubation for 15 minutes at room temperature, the samples were read at 550 nm using a microplate spectrophotometer (Molecular Devices, Sunnyvale, Calif.). Data for each treatment were normalized based on results from an MTT cell proliferation assay.

Wistar rats = test: Carrageenan-induced rat paw edema; assay type: in vivo; conditions: indomethacin (15 mg/kg)
Method: Groups of 5 adult male and female Wistar rats with body weights from 136 g to 170 g were used for this study. Rats were housed five animals per cage in a room kept at 24-26° C. and fed ad libitium. Before the experiment began, rat paw sizes were recorded by measuring paw volume three times on each animal using a plethysmometer (Ugo Basile, Comerio VA, Italy). The values were averaged to give a baseline paw size value. To start the experiment, animals were given a subcutaneous injection of 1% carrageenan (100 μl; Sigma, St. Louis, Mo.) in the area of the back paw to induce an acute inflammatory reaction (paw edema). One hour after carrageenan injection, rats were orally gavaged with chicory extract or vehicle control (4% apricot kernel balm). Paw size was measured at 3 hours, 5 hours, and 24 hours after injection. The increase in paw edema at each time point was determined by comparison with paw volume measured pre-injection. Inhibition of edema was calculated by comparison with vehicle control at the same time point.

BALB/c mice = test: Collagen induced arthritis (type II collagen mAbs with LPS challenge); assay type: in vivo; conditions: indomethacin 3 mg/kg oral
Method: Groups of 5 BALB/c mice weighing 25±2 g were used for this study. A 4 mg/mouse combination of 4 monoclonal antibodies (mAbs) against type II collagen (D8, F10, DI-2G, and A2; IBL Co., Japan) was administered to mice intravenously on day 0 of the study to induce an inflammatory reaction mimicking rheumatoid arthritis. On day 3 of the study, mice were given LPS ([…]) intravenously to potentiate the inflammatory effect. One hour after LPS administration, mice were dosed orally with chicory extract (200 mg/kg), indomethacin (3 mg/kg; Sigma, St. Louis, Mo.), or vehicle control (1% carboxymethylcellulose, CMC; Sigma, St. Louis, Mo.). Mice were dosed with chicory extract or vehicle for two more consecutive days. Volumes of both hind paws were measured using a plethysmometer on days 0, 5, 7, 10, 14, and 17. The increase in paw edema at each time point was determined by comparison with paw volume measured on day 0. Inhibition of edema was calculated by comparison with vehicle control at the same time point. This study was a GLP study (#1038342) performed by MDS Pharma Services (Taiwan).

| SMILES | Griess assay % LPS control [1] | Rat Paw Edema, inhibition of edema vs vehicle control (Wistar rats; 3 h after carrageenan) | Rat Paw Edema, inhibition of edema vs vehicle control (Wistar rats; 5 h after carrageenan) | Rat Paw Edema, inhibition of edema vs vehicle control (Wistar rats; 24 h after carrageenan) | Mouse arthritis % inhibition of edema (BALB/c mice; day 5) | Mouse arthritis % inhibition of edema (BALB/c mice; day 7) | Mouse arthritis % inhibition of edema (BALB/c mice; day 10) | Mouse arthritis % inhibition of edema (BALB/c mice; day 14) | Mouse arthritis % inhibition of edema (BALB/c mice; day 17) |
| --- | --- | --- | --- | --- | --- | --- | --- | --- | --- |
| CC(=O)Oc1ccccc1C(=O)O [aspirin] | 69% |  |  |  |  |  |  |  |  |
| COc1ccc2c(c1)c(CC(=O)O)c(C)n2C(=O)c1ccc(Cl)cc1 [indomethacin] |  | 43% | 36% | 51% | 83% | 81% | 82% | 77% | 85% |
